The text below walks through data of US10040781B2, “Tank-binding kinase inhibitor compounds” (Gilead Sciences, Inc., priority 2014, dated 2018).

In assay [1] the target is IKKε (Homo sapiens (Human), UniProt Q14164). Briefly: IKKε TR-FRET enzymatic assay. The class given is biochemical. The settings on record: read-out: IKKe IC50. On the technique in general: TR-FRET usually uses a lanthanide donor and a delayed reading to cut background.
Assay [2] concerns the target hJAK2 (Homo sapiens (Human), UniProt O60674). The assay can be described thus: hJAK2 LANCE TR-FRET enzymatic assay. It counts as biochemical. To be noted: read-out: JAK2 IC50.
The target in assay [3] is TBK1 (Homo sapiens (Human), UniProt Q9UHD2). Briefly: TBK1 TR-FRET enzymatic assay.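 Note: phosphorylation of a biotinylated Ser/Thr peptide by purified full-length recombinant TBK1, read by TR-FRET after 240 min at 25 °C, IC50 is the geometric mean of at least four runs.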
Sequence of TBK1 (Q9UHD2 whole entry): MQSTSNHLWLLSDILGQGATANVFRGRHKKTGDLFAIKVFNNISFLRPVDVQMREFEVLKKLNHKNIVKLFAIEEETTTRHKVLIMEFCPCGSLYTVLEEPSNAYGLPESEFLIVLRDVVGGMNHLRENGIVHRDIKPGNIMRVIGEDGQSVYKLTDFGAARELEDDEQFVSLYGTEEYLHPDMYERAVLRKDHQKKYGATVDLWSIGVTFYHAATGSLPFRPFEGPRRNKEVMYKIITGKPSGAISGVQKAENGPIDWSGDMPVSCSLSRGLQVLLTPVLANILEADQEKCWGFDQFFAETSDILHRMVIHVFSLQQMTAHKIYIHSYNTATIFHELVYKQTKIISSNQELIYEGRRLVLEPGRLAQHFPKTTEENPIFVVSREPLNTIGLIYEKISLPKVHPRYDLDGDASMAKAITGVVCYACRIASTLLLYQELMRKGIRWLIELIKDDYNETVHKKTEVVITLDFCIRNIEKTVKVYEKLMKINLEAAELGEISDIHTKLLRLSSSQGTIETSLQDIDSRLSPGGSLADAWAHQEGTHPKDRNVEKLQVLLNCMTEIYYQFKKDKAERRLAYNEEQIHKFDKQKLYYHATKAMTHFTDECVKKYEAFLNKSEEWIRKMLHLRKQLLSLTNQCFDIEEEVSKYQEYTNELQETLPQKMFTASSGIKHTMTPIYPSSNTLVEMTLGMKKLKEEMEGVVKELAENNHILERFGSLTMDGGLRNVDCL

Sequence of IKKε (Q14164 whole entry): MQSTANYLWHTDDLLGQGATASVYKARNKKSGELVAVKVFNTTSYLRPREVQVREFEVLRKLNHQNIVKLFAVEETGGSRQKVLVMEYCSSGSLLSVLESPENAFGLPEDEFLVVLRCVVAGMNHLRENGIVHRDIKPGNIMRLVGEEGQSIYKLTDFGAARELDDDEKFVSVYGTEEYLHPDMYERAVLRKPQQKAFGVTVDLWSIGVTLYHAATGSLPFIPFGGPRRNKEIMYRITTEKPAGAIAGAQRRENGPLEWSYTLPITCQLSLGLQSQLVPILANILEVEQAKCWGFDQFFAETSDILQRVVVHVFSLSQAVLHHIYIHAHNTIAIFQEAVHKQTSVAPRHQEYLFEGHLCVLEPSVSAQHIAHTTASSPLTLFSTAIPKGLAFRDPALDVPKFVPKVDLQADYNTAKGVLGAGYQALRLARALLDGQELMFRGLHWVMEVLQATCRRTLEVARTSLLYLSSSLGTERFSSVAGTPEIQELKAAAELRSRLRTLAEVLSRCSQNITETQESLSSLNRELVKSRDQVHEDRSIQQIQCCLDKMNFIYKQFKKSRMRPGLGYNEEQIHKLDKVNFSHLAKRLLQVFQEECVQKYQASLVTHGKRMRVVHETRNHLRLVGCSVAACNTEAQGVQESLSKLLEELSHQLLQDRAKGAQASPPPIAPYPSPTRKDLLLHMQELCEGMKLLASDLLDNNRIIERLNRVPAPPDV
Sequence of hJAK2 (O60674 whole entry): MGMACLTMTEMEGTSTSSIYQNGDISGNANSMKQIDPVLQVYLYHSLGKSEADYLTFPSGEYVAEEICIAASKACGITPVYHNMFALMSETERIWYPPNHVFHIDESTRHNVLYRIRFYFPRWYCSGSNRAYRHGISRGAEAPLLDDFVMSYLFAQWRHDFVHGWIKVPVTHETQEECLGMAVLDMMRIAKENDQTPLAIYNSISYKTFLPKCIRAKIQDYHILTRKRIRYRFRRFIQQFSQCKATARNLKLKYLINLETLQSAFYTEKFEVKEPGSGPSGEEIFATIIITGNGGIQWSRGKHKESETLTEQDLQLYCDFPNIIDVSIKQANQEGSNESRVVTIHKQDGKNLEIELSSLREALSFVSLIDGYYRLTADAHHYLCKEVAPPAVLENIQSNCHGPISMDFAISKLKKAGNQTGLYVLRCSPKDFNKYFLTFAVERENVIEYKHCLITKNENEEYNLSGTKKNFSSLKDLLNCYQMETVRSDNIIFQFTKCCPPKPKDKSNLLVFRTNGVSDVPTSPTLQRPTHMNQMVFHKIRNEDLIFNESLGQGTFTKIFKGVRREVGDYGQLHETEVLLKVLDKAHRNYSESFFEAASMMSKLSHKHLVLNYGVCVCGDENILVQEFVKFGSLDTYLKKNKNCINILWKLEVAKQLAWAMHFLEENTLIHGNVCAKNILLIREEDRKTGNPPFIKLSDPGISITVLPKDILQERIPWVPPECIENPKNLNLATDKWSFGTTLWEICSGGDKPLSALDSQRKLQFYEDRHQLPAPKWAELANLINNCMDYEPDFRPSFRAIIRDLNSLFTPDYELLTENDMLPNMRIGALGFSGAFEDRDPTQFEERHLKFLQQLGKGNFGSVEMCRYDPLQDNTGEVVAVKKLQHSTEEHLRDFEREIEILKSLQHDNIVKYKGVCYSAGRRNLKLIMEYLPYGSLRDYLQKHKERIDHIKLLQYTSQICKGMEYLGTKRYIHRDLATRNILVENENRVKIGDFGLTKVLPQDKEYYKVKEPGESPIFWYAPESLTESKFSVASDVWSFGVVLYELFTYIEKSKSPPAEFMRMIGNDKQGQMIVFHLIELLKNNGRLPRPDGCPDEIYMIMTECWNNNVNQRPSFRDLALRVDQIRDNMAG

Take `C[C@@H]1CN(c2ccc(Nc3ncnc(-c4ccc(O[C@@H]5CCN(C(=O)[C@@H](C)O)CC5(F)F)c(C#N)c4)n3)cc2)CCN1C1COC1` [Example 247, 2-(((R)-3,3-difluoro-1-((R)-2-hydroxypropanoyl)piperidin-4-yl)oxy)-5-(4-((4-((R)-3-methyl-4-(oxetan-3-yl)piperazin-1-yl)phenyl)amino)-1,3,5-triazin-2-yl)benzonitrile]: the IC50 was found to be 397 nM in assay [1], 333 nM in assay [2] and 233 nM in assay [3].

For the compound `C[C@@H]1CN(c2ccc(Nc3ncnc(-c4ccc(O[C@H]5CCN(C(=O)[C@@H](C)O)CC5(F)F)c(C#N)c4)n3)cc2)CCN1C1COC1` [Example 248, 2-(((S)-3,3-difluoro-1-((R)-2-hydroxypropanoyl)piperidin-4-yl)oxy)-5-(4-((4-((R)-3-methyl-4-(oxetan-3-yl)piperazin-1-yl)phenyl)amino)-1,3,5-triazin-2-yl)benzonitrile], the results for the IC50 in assay [1], in assay [2] and in assay [3] were 3 nM, 187 nM and 3 nM, respectively.

With `C[C@H](O)C(=O)N1CC[C@H](Oc2ccc(-c3ncnc(Nc4ccc(N5CCN(C6COC6)C[C@@H]5C)cc4)n3)cc2C#N)[C@H](F)C1` [Example 249, 2-(((3R,4S)-3-fluoro-1-((S)-2-hydroxypropanoyl)piperidin-4-yl)oxy)-5-(4-((4-((S)-2-methyl-4-(oxetan-3-yl)piperazin-1-yl)phenyl)amino)-1,3,5-triazin-2-yl)benzonitrile], the IC50 in assay [1] came to 2 nM; in assay [2], 389 nM; in assay [3], 3 nM.

As for `C[C@H]1CN(C2COC2)CCN1c1ccc(Nc2ncnc(-c3ccc(O[C@H]4CCN(C(=O)CC#N)C[C@H]4F)c(C#N)c3)n2)cc1` [Example 250, 2-(((3R,4S)-1-(2-cyanoacetyl)-3-fluoropiperidin-4-yl)oxy)-5-(4-((4-((S)-2-methyl-4-(oxetan-3-yl)piperazin-1-yl)phenyl)amino)-1,3,5-triazin-2-yl)benzonitrile], the IC50 in assay [1] turned out to be 5 nM; in assay [2] it was 127 nM; in assay [3], 3 nM.

For `C[C@H]1CN(C2COC2)CCN1c1ccc(Nc2ncnc(-c3ccc(O[C@H]4CCN(C(=O)CCO)C[C@H]4F)c(C#N)c3)n2)cc1` [Example 251, 2-(((3R,4S)-3-fluoro-1-(3-hydroxypropanoyl)piperidin-4-yl)oxy)-5-(4-((4-((S)-2-methyl-4-(oxetan-3-yl)piperazin-1-yl)phenyl)amino)-1,3,5-triazin-2-yl)benzonitrile], the results for the IC50 in assay [1], in assay [2] and in assay [3] were 14 nM, 369 nM and 5 nM, respectively.

Take `C[C@H](O)C(=O)N1CC[C@H](Oc2ccc(-c3ncnc(Nc4ccc(N5CCN(C6COC6)C[C@@H]5C)cc4)n3)cc2C#N)C(F)(F)C1` [Example 252, 2-(((S)-3,3-difluoro-1-((S)-2-hydroxypropanoyl)piperidin-4-yl)oxy)-5-(4-((4-((S)-2-methyl-4-(oxetan-3-yl)piperazin-1-yl)phenyl)amino)-1,3,5-triazin-2-yl)benzonitrile]: the IC50 came out at 1 nM in assay [1], 213 nM in assay [2] and 3 nM in assay [3].

With `C[C@H]1CN(C2COC2)CCN1c1ccc(Nc2ncnc(-c3ccc(O[C@H]4CCN(C(=O)CC#N)CC4(F)F)c(C#N)c3)n2)cc1` [Example 253, 2-(((S)-1-(2-cyanoacetyl)-3,3-difluoropiperidin-4-yl)oxy)-5-(4-((4-((S)-2-methyl-4-(oxetan-3-yl)piperazin-1-yl)phenyl)amino)-1,3,5-triazin-2-yl)benzonitrile], the results for the IC50 in assay [1], in assay [2] and in assay [3] were 2 nM, 61 nM and 3 nM, respectively.

In the case of `C[C@H]1CN(C2COC2)CCN1c1ccc(Nc2ncnc(-c3ccc(O[C@H]4CCN(C(=O)CCO)CC4(F)F)c(C#N)c3)n2)cc1` [Example 254, 2-(((S)-3,3-difluoro-1-(3-hydroxypropanoyl)piperidin-4-yl)oxy)-5-(4-((4-((S)-2-methyl-4-(oxetan-3-yl)piperazin-1-yl)phenyl)amino)-1,3,5-triazin-2-yl)benzonitrile], the IC50 in assay [1] is 5 nM; in assay [2], 151 nM; in assay [3], 3 nM.

On to `C[C@H]1CN(C2COC2)CCN1c1ccc(Nc2ncnc(-c3ccc(O[C@H]4CCN(C(=O)c5cnn[nH]5)C[C@H]4F)c(C#N)c3)n2)cc1` [Example 255, 2-(((3R,4S)-3-fluoro-1-(1H-1,2,3-triazole-5-carbonyl)piperidin-4-yl)oxy)-5-(4-((4-((S)-2-methyl-4-(oxetan-3-yl)piperazin-1-yl)phenyl)amino)-1,3,5-triazin-2-yl)benzonitrile], for which the IC50 in assay [1] came to 2 nM; in assay [2], 227 nM; in assay [3], 4 nM.

On to `C[C@H]1CN(C2COC2)CCN1c1ccc(Nc2ncnc(-c3ccc(O[C@H]4CCN(C(=O)c5cnc[nH]5)C[C@H]4F)c(C#N)c3)n2)cc1` [Example 256, 2-(((3R,4S)-3-fluoro-1-(1H-imidazole-5-carbonyl)piperidin-4-yl)oxy)-5-(4-((4-((S)-2-methyl-4-(oxetan-3-yl)piperazin-1-yl)phenyl)amino)-1,3,5-triazin-2-yl)benzonitrile], for which the IC50 was determined as 1 nM in assay [1], 144 nM in assay [2] and 3 nM in assay [3].

On to `C[C@H]1CN(C2COC2)CCN1c1ccc(Nc2ncnc(-c3ccc(O[C@H]4CCN(C(=O)c5ccn[nH]5)C[C@H]4F)c(C#N)c3)n2)cc1` [Example 257, 2-(((3R,4S)-3-fluoro-1-(1H-pyrazole-5-carbonyl)piperidin-4-yl)oxy)-5-(4-((4-((S)-2-methyl-4-(oxetan-3-yl)piperazin-1-yl)phenyl)amino)-1,3,5-triazin-2-yl)benzonitrile], for which the IC50 was found to be 1 nM in assay [1], 270 nM in assay [2] and 2 nM in assay [3].

Consider `C[C@H]1CN(C2COC2)CCN1c1ccc(Nc2ncnc(-c3ccc(O[C@H]4CCN(C(=O)c5cnc[nH]5)CC4(F)F)c(C#N)c3)n2)cc1` [Example 259, 2-(((S)-3,3-difluoro-1-(1H-imidazole-5-carbonyl)piperidin-4-yl)oxy)-5-(4-((4-((S)-2-methyl-4-(oxetan-3-yl)piperazin-1-yl)phenyl)amino)-1,3,5-triazin-2-yl)benzonitrile], for which the IC50 stood at 1 nM in assay [1], 66 nM in assay [2] and 3 nM in assay [3].

Consider `C[C@H](O)C(=O)N1CC[C@H](Oc2ccc(-c3ncnc(Nc4ccc(N5CCN(C6COC6)[C@@H](C)C5)cc4)n3)cc2C#N)C(F)(F)C1` [Example 262, 2-(((S)-3,3-difluoro-1-((S)-2-hydroxypropanoyl)piperidin-4-yl)oxy)-5-(4-((4-((S)-3-methyl-4-(oxetan-3-yl)piperazin-1-yl)phenyl)amino)-1,3,5-triazin-2-yl)benzonitrile], for which the figures for the IC50 in assay [1], in assay [2] and in assay [3] were 1 nM, 156 nM and 2 nM, respectively.

As for `C[C@H]1CN(c2ccc(Nc3ncnc(-c4ccc(O[C@H]5CCN(C(=O)c6cnn[nH]6)C[C@H]5F)c(C#N)c4)n3)cc2)CCN1C1COC1` [Example 263, 2-(((3R,4S)-3-fluoro-1-(1H-1,2,3-triazole-5-carbonyl)piperidin-4-yl)oxy)-5-(4-((4-((S)-3-methyl-4-(oxetan-3-yl)piperazin-1-yl)phenyl)amino)-1,3,5-triazin-2-yl)benzonitrile], the IC50 in assay [1] was 3 nM; in assay [2], 158 nM; in assay [3] it was 3 nM.

In the case of `C[C@H](O)C(=O)N1CC[C@H](Oc2ccc(-c3ncnc(Nc4ccc(N5CCN(C6COC6)[C@@H](C)C5)cc4)n3)cc2C#N)[C@H](F)C1` [Example 264, 2-(((3R,4S)-3-fluoro-1-((S)-2-hydroxypropanoyl)piperidin-4-yl)oxy)-5-(4-((4-((S)-3-methyl-4-(oxetan-3-yl)piperazin-1-yl)phenyl)amino)-1,3,5-triazin-2-yl)benzonitrile], the figures for the half-inhibitory concentration (IC50) in assay [1], in assay [2] and in assay [3] were 1 nM, 296 nM and 2 nM, respectively.

`C[C@H](O)C(=O)N1CC[C@H](Oc2ccc(-c3ncnc(Nc4ccc(N5C[C@@H](C)N(C6COC6)C[C@@H]5C)cc4)n3)cc2C#N)[C@H](F)C1` [Example 265, 5-(4-((4-((2S,5R)-2,5-dimethyl-4-(oxetan-3-yl)piperazin-1-yl)phenyl)amino)-1,3,5-triazin-2-yl)-2-(((3R,4S)-3-fluoro-1-((S)-2-hydroxypropanoyl)piperidin-4-yl)oxy)benzonitrile]: the IC50 is 4 nM in assay [1], 426 nM in assay [2] and 5 nM in assay [3].

For the compound `Cc1ncc(C(=O)N2CC[C@H](Oc3ccc(-c4ncnc(Nc5ccc(N6CCN(C7COC7)CC6)cc5)n4)cc3C#N)[C@H](F)C2)n1C` [Example 266, 2-(((3R,4S)-1-(1,2-dimethyl-1H-imidazole-5-carbonyl)-3-fluoropiperidin-4-yl)oxy)-5-(4-((4-(4-(oxetan-3-yl)piperazin-1-yl)phenyl)amino)-1,3,5-triazin-2-yl)benzonitrile], the IC50 in assay [1] worked out at 83 nM; in assay [2], 387 nM; in assay [3], 82 nM.

For `Cn1cncc1C(=O)N1CC[C@H](Oc2ccc(-c3ncnc(Nc4ccc(N5CCN(C6COC6)CC5)cc4)n3)cc2C#N)[C@H](F)C1` [Example 267, 2-(((3R,4S)-3-fluoro-1-(1-methyl-1H-imidazole-5-carbonyl)piperidin-4-yl)oxy)-5-(4-((4-(4-(oxetan-3-yl)piperazin-1-yl)phenyl)amino)-1,3,5-triazin-2-yl)benzonitrile], the IC50 in assay [1] was found to be 264 nM; in assay [2], 404 nM; in assay [3], 120 nM.

With `N#Cc1cc(-c2ncnc(Nc3ccc(N4CCN(C5COC5)CC4)c(F)c3)n2)ccc1OC1CCS(=O)(=O)CC1` [Example 268, 2-((1,1-dioxidotetrahydro-2H-thiopyran-4-yl)oxy)-5-(4-((3-fluoro-4-(4-(oxetan-3-yl)piperazin-1-yl)phenyl)amino)-1,3,5-triazin-2-yl)benzonitrile], the values for the IC50 in assay [1], in assay [2] and in assay [3] were 69 nM, 527 nM and 12 nM, respectively.

As a reminder, the IC50 is the concentration that inhibits the measured activity by half.
